Data published in patent US20100267561A1, “HERBICIDAL PYRIDAZINONE DERIVATIVES” (priority 2007, published 2010).
Like-named read-outs stand apart in the source and are kept apart here.

How the values were obtained:
Type in all cases: in vivo
[1] = system: giant foxtail (Setaria faberi); experiment: Test A pre-/postemergence plant response; conditions: Setaria faberi, 240 h, read-out: Plant response rating, Foxtail, Giant; for pest or weed control at 125 g/ha: 125 g ai/ha; for pest or weed control at 500 g/ha: 500 g ai/ha
Summary of the method: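 Seeds were planted in blended loam soil and sand, then treated preemergence by directed soil spray. At that time, emerged plants (one- to two-leaf, 2–10 cm) received postemergence applications of the same surfactant-containing formulation. Injury was assessed visually on a 0–100 scale after approximately 10 days.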

[2] = system: giant foxtail (Setaria faberii); experiment: Test B pre-/postemergence plant response; conditions: for Foxtail, Giant plant response rating: 8 g ai/ha; for pest or weed control at 16 g/ha / pest or weed control at 31 g/ha / pest or weed control at 62 g/ha: Setaria faberi, read-out: Plant response rating, Foxtail, Giant; for pest or weed control at 16 g/ha: 16 g ai/ha; for pest or weed control at 31 g/ha: 31 g ai/ha; for pest or weed control at 62 g/ha: 62 g ai/ha
Summary of the method: (§1)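 Seeds were sown and sprayed preemergence, while plants at 2 to 18 cm (1- to 4-leaf stage) got postemergence sprays. Compounds were formulated in a non-phytotoxic solvent mixture with surfactant. After 13 to 15 days in a greenhouse, injury was rated visually against untreated controls, 0 (no effect) to 100 (complete control).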

[3] = system: velvetleaf (Abutilon theophrasti); experiment: Test B pre-/postemergence plant response; conditions: for Velvetleaf plant response rating: 8 g ai/ha; for pest or weed control at 16 g/ha: 16 g ai/ha; for pest or weed control at 62 g/ha: 62 g ai/ha
Summary of the method: as §1

[4] = system: common (oilseed) sunflower (Helianthus annuus); experiment: Test B pre-/postemergence plant response; conditions: Preemergence
Summary of the method: as §1

[5] = system: blackgrass (Alopecurus myosuroides); experiment: Test B pre-/postemergence plant response; conditions: for pest or weed control at 31 g/ha: 31 g ai/ha; for pest or weed control at 62 g/ha: 62 g ai/ha
Summary of the method: as §1

[6] = system: johnsongrass (Sorghum halepense); experiment: Test B pre-/postemergence plant response; conditions: for Johnsongrass plant response rating: 8 g ai/ha; for pest or weed control at 16 g/ha / pest or weed control at 31 g/ha / pest or weed control at 62 g/ha: Sorghum halepense, read-out: Plant response rating, Johnsongrass; for pest or weed control at 16 g/ha: 16 g ai/ha; for pest or weed control at 31 g/ha: 31 g ai/ha; for pest or weed control at 62 g/ha: 62 g ai/ha
Summary of the method: as §1

soybean (Glycine max) = experiment: Test B pre-/postemergence plant response; conditions: for Soybean plant response rating: 8 g ai/ha; for plant injury at 16 g/ha: 16 g ai/ha; for plant injury at 62 g/ha: 62 g ai/ha
Summary of the method: as §1

[7] = system: pigweed (Amaranthus retroflexus); experiment: Test B pre-/postemergence plant response; conditions: for Pigweed plant response rating: 8 g ai/ha; for pest or weed control at 16 g/ha / pest or weed control at 31 g/ha / pest or weed control at 62 g/ha: Amaranthus retroflexus, read-out: Plant response rating, Pigweed; for pest or weed control at 16 g/ha: 16 g ai/ha; for pest or weed control at 31 g/ha: 31 g ai/ha; for pest or weed control at 62 g/ha: 62 g ai/ha
Summary of the method: as §1

[8] = system: wheat (Triticum aestivum); experiment: Test B pre-/postemergence plant response; conditions: for Wheat plant response rating: 8 g ai/ha; for plant injury at 16 g/ha: 16 g ai/ha; for plant injury at 62 g/ha: 62 g ai/ha
Summary of the method: as §1

[9] = system: goosegrass (Eleusine indica); experiment: Test B pre-/postemergence plant response; conditions: for Goosegrass plant response rating: 8 g ai/ha; for pest or weed control at 16 g/ha / pest or weed control at 31 g/ha / pest or weed control at 62 g/ha: Eleusine indica, read-out: Plant response rating, Goosegrass; for pest or weed control at 16 g/ha: 16 g ai/ha; for pest or weed control at 31 g/ha: 31 g ai/ha; for pest or weed control at 62 g/ha: 62 g ai/ha
Summary of the method: as §1

[10] = system: bermudagrass (Cynodon dactylon); experiment: Test B pre-/postemergence plant response; conditions: for Bermudagrass plant response rating: 8 g ai/ha; for pest or weed control at 16 g/ha / pest or weed control at 31 g/ha / pest or weed control at 62 g/ha: Cynodon dactylon, read-out: Plant response rating, Bermudagrass; for pest or weed control at 16 g/ha: 16 g ai/ha; for pest or weed control at 31 g/ha: 31 g ai/ha; for pest or weed control at 62 g/ha: 62 g ai/ha
Summary of the method: as §1

[11] = system: downy bromegrass (Bromus tectorum); experiment: Test B pre-/postemergence plant response; conditions: for Bromegrass, Downy plant response rating: 8 g ai/ha; for pest or weed control at 16 g/ha / pest or weed control at 31 g/ha / pest or weed control at 62 g/ha: Bromus tectorum, read-out: Plant response rating, Bromegrass, Downy; for pest or weed control at 16 g/ha: 16 g ai/ha; for pest or weed control at 31 g/ha: 31 g ai/ha; for pest or weed control at 62 g/ha: 62 g ai/ha
Summary of the method: as §1

[12] = post-emergence, Postemergence, 0 to 100 scale, 0 no effect, 100 complete control
[13] = pre-emergence, Preemergence, 0 to 100 scale (0 no effect, 100 complete control)
[14] = post-emergence, Postemergence, scale 0 to 100
[15] = post-emergence, Postemergence, scale 0 to 100, 0 no effect, 100 complete control
[16] = pre-emergence, Preemergence, scale 0 to 100 (0 no effect, 100 complete control)
[17] = pre-emergence, Preemergence, 0 to 100 scale, 0 no effect, 100 complete control
[18] = pre-emergence, Preemergence, scale 0 to 100
[19] = Alopecurus myosuroides, post-emergence, Postemergence, scale 0 to 100, 0 no effect, 100 complete control, read-out: Plant response rating, Blackgrass

CCc1c(C)c(-c2ccc(Cl)cc2)nn1-c1c(O)cnn(C)c1=O [Compound 26, 4-[3-(4-chlorophenyl)-5-ethyl-4-methyl-1H-pyrazol-1-yl]-5-hydroxy-2-methyl-3(2H)-pyridazinone]
pest or weed control at 125 g/ha [1, 12]: 90%
pest or weed control at 500 g/ha [1, 12]: 100%
pest or weed control at 125 g/ha [1, 13]: 100%
pest or weed control at 500 g/ha [1, 13]: 100%
Foxtail, Giant plant response rating ([2]; postemergence, 0-100 scale): 80
Foxtail, Giant plant response rating ([2]; Preemergence, scale 0 to 100): 65
pest or weed control at 16 g/ha [2, 14]: 95%
pest or weed control at 31 g/ha [2, 15]: 95%
pest or weed control at 62 g/ha [2, 15]: 100%
pest or weed control at 16 g/ha [2, 16]: 95%
pest or weed control at 31 g/ha [2, 17]: 100%
pest or weed control at 62 g/ha [2, 18]: 100%
Velvetleaf plant response rating ([3]; postemergence, 0-100 scale): 0
pest or weed control at 16 g/ha ([3]; Abutilon theophrasti, post-emergence, Postemergence, scale 0 to 100, read-out: Plant response rating, Velvetleaf): 0%
pest or weed control at 62 g/ha ([3]; Abutilon theophrasti, post-emergence, Postemergence, scale 0 to 100, 0 no effect, 100 complete control, read-out: Plant response rating, Velvetleaf): 0%
pest or weed control at 16 g/ha ([3]; Abutilon theophrasti, pre-emergence, Preemergence, scale 0 to 100 (0 no effect, 100 complete control), read-out: Plant response rating, Velvetleaf): 0%
pest or weed control at 31 g/ha ([3]; Abutilon theophrasti, pre-emergence, Preemergence, 31 g ai/ha, 0 to 100 scale, 0 no effect, 100 complete control, read-out: Plant response rating, Velvetleaf): 0%
pest or weed control at 62 g/ha ([3]; Abutilon theophrasti, pre-emergence, Preemergence, scale 0 to 100, read-out: Plant response rating, Velvetleaf): 0%
Velvetleaf plant response rating ([3]; Preemergence, scale 0 to 100): 0
pest or weed control at 16 g/ha ([4]; Helianthus annuus, pre-emergence, 16 g ai/ha, scale 0 to 100 (0 no effect, 100 complete control), read-out: Plant response rating, Sunflower): 0%
pest or weed control at 31 g/ha ([4]; Helianthus annuus, pre-emergence, 31 g ai/ha, 0 to 100 scale, 0 no effect, 100 complete control, read-out: Plant response rating, Sunflower): 0%
pest or weed control at 62 g/ha ([4]; Helianthus annuus, pre-emergence, 62 g ai/ha, scale 0 to 100, read-out: Plant response rating, Sunflower): 0%
Sunflower plant response rating ([4]; 8 g ai/ha, scale 0 to 100): 0
Blackgrass plant response rating ([5]; 8 g ai/ha, postemergence, 0-100 scale): 0
pest or weed control at 16 g/ha ([5]; Alopecurus myosuroides, post-emergence, Postemergence, 16 g ai/ha, scale 0 to 100, read-out: Plant response rating, Blackgrass): 50%
pest or weed control at 31 g/ha [5, 19]: 80%
pest or weed control at 62 g/ha [5, 19]: 80%
pest or weed control at 31 g/ha ([5]; Alopecurus myosuroides, pre-emergence, Preemergence, 0 to 100 scale, 0 no effect, 100 complete control, read-out: Plant response rating, Blackgrass): 85%
pest or weed control at 62 g/ha ([5]; Alopecurus myosuroides, pre-emergence, Preemergence, scale 0 to 100, read-out: Plant response rating, Blackgrass): 100%
Johnsongrass plant response rating ([6]; postemergence, 0-100 scale): 0
Johnsongrass plant response rating ([6]; Preemergence, scale 0 to 100): 0
pest or weed control at 16 g/ha [6, 14]: 0%
pest or weed control at 31 g/ha [6, 15]: 20%
pest or weed control at 62 g/ha [6, 15]: 20%
pest or weed control at 16 g/ha [6, 16]: 0%
pest or weed control at 31 g/ha [6, 17]: 0%
pest or weed control at 62 g/ha [6, 18]: 50%
Soybean plant response rating (soybean (Glycine max); postemergence, 0-100 scale): 0
plant injury at 16 g/ha (soybean (Glycine max); Glycine max, post-emergence, Postemergence, scale 0 to 100, read-out: Plant response rating, Soybean): 0%
plant injury at 62 g/ha (soybean (Glycine max); Glycine max, post-emergence, Postemergence, scale 0 to 100, 0 no effect, 100 complete control, read-out: Plant response rating, Soybean): 0%
plant injury at 16 g/ha (soybean (Glycine max); Glycine max, pre-emergence, Preemergence, scale 0 to 100 (0 no effect, 100 complete control), read-out: Plant response rating, Soybean): 0%
plant injury at 31 g/ha (soybean (Glycine max); Glycine max, pre-emergence, Preemergence, 31 g ai/ha, 0 to 100 scale, 0 no effect, 100 complete control, read-out: Plant response rating, Soybean): 0%
plant injury at 62 g/ha (soybean (Glycine max); Glycine max, pre-emergence, Preemergence, scale 0 to 100, read-out: Plant response rating, Soybean): 0%
Soybean plant response rating (soybean (Glycine max); Preemergence, scale 0 to 100): 0
Pigweed plant response rating ([7]; postemergence, 0-100 scale): 0
pest or weed control at 16 g/ha [7, 14]: 0%
pest or weed control at 31 g/ha [7, 15]: 0%
pest or weed control at 62 g/ha [7, 15]: 0%
pest or weed control at 16 g/ha [7, 16]: 0%
pest or weed control at 31 g/ha [7, 17]: 0%
pest or weed control at 62 g/ha [7, 18]: 0%
Pigweed plant response rating ([7]; Preemergence, scale 0 to 100): 0
Wheat plant response rating ([8]; postemergence, 0-100 scale): 0
Wheat plant response rating ([8]; Preemergence, scale 0 to 100): 0
plant injury at 16 g/ha ([8]; Triticum aestivum, post-emergence, Postemergence, scale 0 to 100, read-out: Plant response rating, Wheat): 0%
plant injury at 62 g/ha ([8]; Triticum aestivum, post-emergence, Postemergence, scale 0 to 100, 0 no effect, 100 complete control, read-out: Plant response rating, Wheat): 5%
plant injury at 16 g/ha ([8]; Triticum aestivum, pre-emergence, Preemergence, scale 0 to 100 (0 no effect, 100 complete control), read-out: Plant response rating, Wheat): 0%
plant injury at 31 g/ha ([8]; Triticum aestivum, pre-emergence, Preemergence, 31 g ai/ha, 0 to 100 scale, 0 no effect, 100 complete control, read-out: Plant response rating, Wheat): 0%
plant injury at 62 g/ha ([8]; Triticum aestivum, pre-emergence, Preemergence, scale 0 to 100, read-out: Plant response rating, Wheat): 0%
Goosegrass plant response rating ([9]; postemergence, 0-100 scale): 0
pest or weed control at 16 g/ha [9, 14]: 0%
pest or weed control at 31 g/ha [9, 15]: 0%
pest or weed control at 62 g/ha [9, 15]: 20%
pest or weed control at 16 g/ha [9, 16]: 50%
pest or weed control at 31 g/ha [9, 17]: 70%
pest or weed control at 62 g/ha [9, 18]: 95%
Goosegrass plant response rating ([9]; Preemergence, scale 0 to 100): 50
Bermudagrass plant response rating ([10]; postemergence, 0-100 scale): 0
pest or weed control at 16 g/ha [10, 14]: 0%
pest or weed control at 31 g/ha [10, 15]: 0%
pest or weed control at 62 g/ha [10, 15]: 0%
pest or weed control at 16 g/ha [10, 16]: 0%
pest or weed control at 31 g/ha [10, 17]: 0%
pest or weed control at 62 g/ha [10, 18]: 80%
Bermudagrass plant response rating ([10]; Preemergence, scale 0 to 100 (0 no effect, 100 complete control)): 0
Bromegrass, Downy plant response rating ([11]; postemergence, 0-100 scale): 0
pest or weed control at 16 g/ha [11, 14]: 10%
pest or weed control at 31 g/ha [11, 15]: 30%
pest or weed control at 62 g/ha [11, 15]: 60%
pest or weed control at 16 g/ha [11, 16]: 0%
pest or weed control at 31 g/ha [11, 17]: 10%
pest or weed control at 62 g/ha [11, 18]: 65%
Bromegrass, Downy plant response rating ([11]; Preemergence, scale 0 to 100): 0
